Source: patent US5597922A, “Glycine receptor antagonist pharmacophore” (priority 1994, dated 1997)
Like-named read-outs stand apart in the source and are kept apart here.

Tests used:
[1] = molecular target: T1, glycine/NMDA receptor (Rattus norvegicus, UniProt P35439); test: inhibition of 1 μM glycine-stimulated [3H]-MK801 binding in rat brain membrane homogenates (glycine/NMDA receptor antagonist activity); conditions: for potency relative to DCK (% of DCK): relative to 5,7-dichlorokynurenic acid (DCK); for activity as antagonist for the glycine/NMDA receptor (in words): in vitro binding assay; for Ki: calculated from IC50 by Cheng and Prusoff equation
T1 construct: rat brain membrane homogenates which are enriched in NMDA receptors; tissue Pel-Freez, Rogers, Ark; (frozen rat brains); host or cells: rat brain membrane homogenates
Experimental: This assay takes advantage of the fact that the binding of [^3 H]-MK801 to the PCP receptor inside the pore of the NMDA channel is dependent on the presence of both glutamate and glycine. In the absence of glycine but in the presence of glutamate, [^3 H]-MK801 cannot bind effectively to the PCP receptor, because the NMDA channel remains closed and access of [^3 H]-MK801 to the PCP receptor inside the closed channel pore is severely restricted.
The assay is conducted using rat brain membrane homogenates which are enriched in NMDA receptors. The membranes are prepared as follows. Frozen rat brains (obtained from Pel-Freez, Rogers, Ark.) are homogenized in 15 volumes (w/v) of ice cold 0.32M sucrose. The homogenate is spun at 1,000×g for ten minutes. The supernatant is collected and spun for 20 minutes at 44,000×g. The pellet is suspended in 15 volumes of water (relative to original brain weight). The homogenate is again spun at 44,000×g for twenty minutes. The pellet is resuspended in 5 volumes of water and the suspension is freeze-thawed 2 times. After the final thaw cycle, the suspension is brought to 15 volumes with water and spun at 44,000×g for twenty minutes. The pellet is resuspended in 5 volumes of ice-cold […] HEPES, and is titrated to pH 7.4 with KOH containing 0.04% Triton X-100. Membranes are incubated with the Triton/HEPES buffer at 37° C. for 15 minutes. The volume is then brought to 15 with ice-cold 10 mM HEPES, pH 7.4, and spun/washed three times with spins of 44,000×g between washes. The final pellet is suspended in three volumes of 50 mM HEPES, pH 7.4 and the protein concentration is determined with a standard dye-binding protein assay (Bio-Rad, Richmond, Calif.). The suspension is stored at -80° C. until used. Only HPLC grade water is used for all buffers and suspensions/washings. The extensive washings are necessary to remove as much endogenous glycine from the membrane preparation as possible.
Nonspecific binding is defined as the […] presence of PCP (final concentration: 100 μM). To determine the effect of 1 μM glycine on the binding of [^3 H]-MK801, bound radioactivity in the presence of 10 μM glutamate alone (final concentration) is subtracted from the bound radioactivity in the presence of both 10 μM glutamate and 1 μM glycine (final concentration). A 500 nM concentration (final) of 5,7-dichlorokynurenic (DCK) acid is added to all assay tubes. This concentration of the glycine antagonist DCK "buffers" most of the residual endogenous glycine that is not removed by the extensive washing steps that are carried out during the membrane preparation procedure.
The assays are incubated for 120 minutes at room temperature after which time the membrane-bound radioactivity is isolated from the free radioactivity by vacuum filtration through Whatman glass fiber filters that had been pretreated with 0.3% polyethyleneimine. Filtration is accomplished using a Brandel 48 well cell harvester. Filtered membranes are washed three times with 3 mL each of ice cold buffer. Filters are transferred to scintillation vials and 5 mL of scintillation cocktail is added. The vials are shaken overnight and the radioactivity is counted by liquid scintillation spectroscopy. The assays are done in triplicate and all experiments are conducted at least three times.

[2] = system: glycine binding site of the NMDA receptor; conditions: Fletcher and Lodge (1988); cited from earlier work
[3] = in words; cited from earlier work
[4] = molecular target: PCP receptor; conditions: Wong, E. H. F., et al. (1986); cited from earlier work
[5] = 1 μM glycine-stimulated [3H]-MK801 binding, rat brain membranes, unit μm [sic], read-out: IC50
[6] = 1 μM glycine-stimulated [3H]-MK801 binding, rat brain membranes, read-out: IC50

In the case of `O=C1CNC(=O)c2ccccc2N1` [Compound 73a, 2,3,5-trihydro-1H,4H-1,4-Benzodiazepine-2,5-dione], the IC50 [1, 5] is reported as 300 µM and the “potency relative to DCK (% of DCK)” value [1] is reported as 1.0%.

With `Oc1nc2ccccc2c(O)c1O` [Compound 11, 2,3,4-Trihydroxyquinoline] the IC50 [1, 6] was 60 µM and the “potency relative to DCK (% of DCK)” value [1] was 4%.

In the case of `NC1CCN(O)C1=O` (stereo not shown) [HA-966], the “affinity for the glycine binding site (in words)” value [2] is listed as “micromolar affinity”, the “type of activity at the glycine binding site (in words)” value [2] is listed as “partial agonist” and the blood/brain barrier penetration [3] is listed as “sufficiently penetrates the blood/brain barrier”.

For `O=c1[nH]c2ccccc2oc1=O` [Compound 2, 4,1-Benzoxazine;2,3-dione], the IC50 [1, 5] was 167 µM and the “potency relative to DCK (% of DCK)” value [1] was 1.5%.

For `O=C1Nc2ccccc2C(=O)C1=O` [Compound 12, Quinoline-2,3,4-trione], the IC50 [1, 6] was 50 µM and the “potency relative to DCK (% of DCK)” value [1] was 5%.

For `COc1cc2ccccc2[nH]c1=O` [Compound 5, 3-Methoxy-2-quinolone], the “activity as antagonist for the glycine/NMDA receptor (in words)” value [1] was “inactive”.

With `O=C1Nc2cc(Cl)cc(Cl)c2C1=O` [Compound 13d, 4,6-Dichloroisatin] the “activity as antagonist for the glycine/NMDA receptor (in words)” value [1] was “not to be active”.

With `O=C1Nc2cc(Cl)c([N+](=O)[O-])c(Cl)c2C1=O` [Compound 13e, 4,6-Dichloro-5(7)-nitroisatin] the IC50 [1, 5] was 96.5 µM and the “potency relative to DCK (% of DCK)” value [1] was 3%.

In the case of `O=C(O)c1cc(=O)c2ccccc2o1` [Compound 19], the “activity as antagonist for the glycine/NMDA receptor (in words)” value [1] is reported as “only partially active”.

For `O=C(O)c1cc2ccccc2[nH]1` [indole-2-carboxylic acid], the blood/brain barrier penetration [3] is listed as “cannot penetrate the blood/brain barrier”.

In the case of `C[C@]12N[C@H](Cc3ccccc31)c1ccccc12` [MK-801], the Kd [4] is given as roughly 0.003 µM.

In the case of `O=C(O)c1cc(O)c2ccc(Cl)cc2n1` [7-Cl-kynurenic acid], the blood/brain barrier penetration [3] is listed as “cannot penetrate the blood/brain barrier”.

Work on `O=c1[nH]c2cc(Cl)c(Cl)cc2[nH]c1=NO` [Compound 37, 6,7-Dichloro-3-(hydroxyimino)-1,4-dihydroquinoxalin-2-one] yielded a Ki [1] of 0.3 µM.

In the case of `O=[N+]([O-])c1c(Br)c(Br)cc2nc(O)[nH]c12` [Example 50, 4-Nitro-5,6-dibromo-2-hydroxybenzimidazole], the “Potency relative to DCK (in words)” value ([1]; relative to DCK) is reported as “inactive”.

In the case of `O=c1[nH]c2cc(Cl)c([N+](=O)[O-])c(Cl)c2c(=O)o1` [Compound 14d, 5,7-Dichloro-6(8)-nitroisatoic anhydride], the “potency relative to DCK (% of DCK)” value [1] is reported as 2.7%.

In the case of `O=c1[nH]c2ccccc2[nH]c1=O` [QX, 1,4-dihydroquinoxaline-2,3-dione, reference compound], the “potency relative to DCK (% of DCK)” value [1] is reported as 2%.

In the case of `O=c1[nH]c2ccccc2c(=O)o1` [Compound 14a, Isatoic anhydride], the IC50 [1] is reported as 231 µM and the “potency relative to DCK (% of DCK)” value [1] is reported as 1.1%.

For `O=C1C=CC(=O)Nc2ccccc2N1` [Compound 43, 1H-6H-1,6-Benzodiazocine-2,5-dione], the “activity as antagonist for the glycine/NMDA receptor (in words)” value [1] was “inactive”.

For `O=C1Nc2ccccc2C1=O` [Compound 13, Isatin], the “activity as antagonist for the glycine/NMDA receptor (in words)” value [1] was “not to be active”.

`O=C1Nc2cc(Cl)c(Cl)cc2NC1[N+](=O)[O-]` (stereo not shown) [Compound 33] gave a Ki ([1]; unit μm [sic]) of 0.22 µM.
